Patent US10624908B2, “Phosphopantetheine compounds alone or in combination with HMG-CoA reductase inhibitors for lowering serum cholesterol and serum triglicerides” (COMET THERAPEUTICS, INC., priority 2014, dated 2020)

Tests used:
[1] = Translocation through cell membranes / uptake by cells; format: cell-based
[2] = Conversion of CoA into 4′-phosphopantetheine in human serum (HPLC)
[3] = test system: HEK293 cells; test: Rescue potential of CoA and 4′-phosphopantetheine in HOPAN assay; format: cell-based, mammalian; settings: HOPAN 0.5 mM, 250 μM compound, 4 days
Experimental: Mammalian HEK293 cells treated with the chemical inhibitor HOPAN (hopanthenate, CAS 17097-76-6, IUPAC: calcium 4-[[(2R)-2,4-dihydroxy-3,3-dimethylbutanoyl]amino]butanoate). Cells treated with HOPAN show a reduction in intracellular CoA levels, which induces a decrease in cell viability.
Materials and Methods: HEK293 cells were cultured in vitamin B5 deficient DMEM (Thermo Scientific) supplemented with 10% dialysed FCS (Thermo Scientific) with and without HOPAN (0.5 mM) and CoA and 4′-phosphopantetheine for 4 days. 250 μM of CoA and 4′-phosphopantetheine was used for determination of rescue efficiency.

[4] = 3 h, 10 μM
[5] = 400 U Coenzyme A/day for 3 weeks combined with statins, oral; cited from earlier work
[6] = patients with moderate dyslipidemia; cited from earlier work

stability in human serum ([2]; human serum over 6 hours incubation)	concentrations of 4′-phosphopantetheine generated from CoA in human serum ([2]; human serum, 37° C., 6 hours incubation of CoA, HPLC)	CoA degraded in human serum [4] [%]	SMILES	translocation through cell membranes / uptake by cells [1]	rescue of HOPAN induced cell count defect ([3]; FIG. 2)	rescue of HOPAN induced cell count defect ([3]; FIG. 2, listed as 4PPT)	rescue of HOPAN induced decrease of intracellular CoA levels ([3]; FIG. 3)	rescue of HOPAN induced decrease of intracellular CoA levels ([3]; FIG. 3, listed as 4PPT)	toxicity [5]	plasma triglyceride levels [6]
stable	observed to increase	–	CC(C)(COP(=O)(O)O)[C@@H](O)C(=O)NCCC(=O)NCCS [4′-phosphopantetheine]	able to effectively translocate through cell membranes	rescued the cell count defect	as potent as CoA	significantly rescued	as potent as CoA	–	–
–	–	60	CC(C)(COP(=O)(O)OP(=O)(O)OC[C@H]1O[C@@H](n2cnc3c(N)ncnc32)[C@H](O)[C@@H]1OP(=O)(O)O)[C@@H](O)C(=O)NCCC(=O)NCCS [CoA, Coenzyme A, reference compound]	cells do not absorb CoA directly	rescued the cell count defect	–	significantly rescued	–	no toxicity was observed	effectively reduce plasma triglyceride levels
